These results are taken from patent publication US20220041616A1, “SPIRO COMPOUND AND MEDICAL USES THEREOF” (The National Institutes of Pharmaceutical R&D Co., Ltd., priority 2018, published 2022).

For one test, the target named is T1, ACC1 (Homo sapiens, UniProt Q13085).
T1 construct: purchased BPS bioscience
Briefly: In vitro inhibition of ACC1 activity, ADP-Glo Kinase Analysis. Type of test: biochemical. The settings on record: 1 nM ACC1, 10 μM acetyl-CoA, 20 μM ATP. Summed up:
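Enzyme was preincubated with compound for 15 min, then reacted for 30 min at room temperature in 5% DMSO, with ADP measured by ADP-Glo luminescence. ACC1: 1 nM, with 10 μM acetyl-CoA, 30 mM NaHCO3 and 20 μM ATP. ACC2: 1.1 nM, with 20 μM acetyl-CoA, 20 mM NaHCO3 and 15 μM ATP.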

The test system of another test is HepG2 cells. Briefly: In vitro inhibition of proliferation of HepG2 cells, CellTiter-Glo. The format is cell-based, human. The settings on record: 3 days incubation, top concentration 30 μM. The text has this:
CellTiter-Glo Analysis Kit (Promega) was used for the detection of the inhibitory effect of the present compound on the proliferation of HepG2 cells. The CellTiter-Glo detection method uses luciferase, which requires ATP for its reaction and luminescence. The intensity of the luminescent signal depends on the amount of ATP, and the amount of ATP depends on the number of living cells. Said analysis only requires that ATP in living cells is converted to luminescence by UltraGlo™ luciferase after treatment with the tested drug, so that the inhibitory effect of the compound is detected based on the luminescence intensity, and its IC50 value is calculated.
a. HepG2 cells were purchased from the American type culture collection (ATCC) resource bank. Cells were cultured in MEM (GIBCO) containing 10% fetal bovine serum, penicillin (100 units/mL) and streptomycin (100 μg/mL), and then incubated in a 37° C. incubator containing 5% carbon dioxide, and passaged once every 2 to 3 days.
b. On the first day, 800 HepG2 cells were inoculated in each well of a 384-well cell culture plate, and then incubated in a 37° C. incubator containing 5% carbon dioxide.
c. On the second day, the medium was changed to that containing the compound. The concentrations of the compound were 30 μM, 10 μM, 3.33 μM, 1.11 μM, 0.37 μM, 0.123 μM, 0.0411 μM, 0.0137 μM, 0.00457 μM and 0.00152 μM. The final concentration of DMSO was 0.3% (v/v). The plate was incubated for 3 days in a incubator containing 5% carbon dioxide at 37° C. The reaction system with paclitaxel at a final concentration of 1 μM was used as positive control; the reaction system with no compound but DMSO at a final concentration of 0.3% was used as negative control.
d. […]
f. The chemiluminescence signal value was read with Envision 2104 instrument.
The average value of the positive and negative control well and the standard deviation were calculated. The percentage inhibition rate was calculated according to the following formula: 100×[1−(compound−average value of positive control)/(average value of negative control−average value of positive control)]. […]
A general note: ATP-based viability assays read luminescence as a measure of living cells.

Another test addresses ACC2 (Homo sapiens, UniProt O00763). Briefly: In vitro inhibition of ACC2 activity, ADP-Glo Kinase Analysis. The format is biochemical. The settings on record: 1.1 nM ACC2, 20 μM acetyl-CoA, 15 μM ATP. The source says:
ADP-Glo™ Kinase Analysis Kit (Promega) is used for the in vitro analysis of the inhibitory effect of the present compound on ACC1 or ACC2. ADP-Glo™ Kinase Analysis is a kinase detection analysis of luminescence method. ADP is produced in the process of catalyzing the substrate by ACC. ADP is converted into ATP which is then converted into light by Ultra-Glo™ luciferase. ADP is quantified by detecting the light signal, thus the enzyme activity can be measured by quantification of the ADP amount produced during the enzyme reaction. The analysis is carried out in two steps: in the first step, after the kinase reaction, a portion of ADP-Glo™ reagent equal in volume to the kinase reaction system is added to terminate the reaction and consume the remaining ATP; in the second step, a kinase detection reagent is added, which not only converts ADP into ATP, but also uses a coupled luciferase/luciferin reaction to detect newly synthesized ATP.
a. 10 mM compound stock solution (the present compound was dissolved in 100% DMSO to prepare the 10 mM stock solution) was diluted 50-fold to 200 μM with 100% DMSO, and then diluted in equal proportions (1:3) in a 96-well dilution plate (249944, Nunc). The gradient concentrations of the compound were 200 μM, 66.67 μM, 22.22 μM, 7.41 μM, 2.47 μM, 0.823 μM, 0.274 μM, 0.0914 μM, 0.0305 μM, 0.0102 μM, 0.00339 μM and 0.00113 μM.
b. 4.5 μL ACC1 working solution (BPS bioscience) (2.22 nM) was added to each well of a 384-well test plate (6007290, Perkin Elmer).
c. 0.5 μL of the serially diluted compound (prepared in step a) was added to each well of the 384-well test plate, which was centrifuged at 1000 rpm for 1 min and then incubated at room temperature for 15 min. […]
g. The chemiluminescence signal was detected with Perkin Elmer EnVision 2104. […]
The average value of the positive and negative control well and the standard deviation were calculated. The inhibition percentage was calculated according to the following formula: 100×[1−(compound−average value of positive control)/(average value of negative control-average value of positive control)]. […]
On the technique in general: In ADP-Glo the light output rises with the ADP produced.

ACC2, sequence (O00763 whole entry): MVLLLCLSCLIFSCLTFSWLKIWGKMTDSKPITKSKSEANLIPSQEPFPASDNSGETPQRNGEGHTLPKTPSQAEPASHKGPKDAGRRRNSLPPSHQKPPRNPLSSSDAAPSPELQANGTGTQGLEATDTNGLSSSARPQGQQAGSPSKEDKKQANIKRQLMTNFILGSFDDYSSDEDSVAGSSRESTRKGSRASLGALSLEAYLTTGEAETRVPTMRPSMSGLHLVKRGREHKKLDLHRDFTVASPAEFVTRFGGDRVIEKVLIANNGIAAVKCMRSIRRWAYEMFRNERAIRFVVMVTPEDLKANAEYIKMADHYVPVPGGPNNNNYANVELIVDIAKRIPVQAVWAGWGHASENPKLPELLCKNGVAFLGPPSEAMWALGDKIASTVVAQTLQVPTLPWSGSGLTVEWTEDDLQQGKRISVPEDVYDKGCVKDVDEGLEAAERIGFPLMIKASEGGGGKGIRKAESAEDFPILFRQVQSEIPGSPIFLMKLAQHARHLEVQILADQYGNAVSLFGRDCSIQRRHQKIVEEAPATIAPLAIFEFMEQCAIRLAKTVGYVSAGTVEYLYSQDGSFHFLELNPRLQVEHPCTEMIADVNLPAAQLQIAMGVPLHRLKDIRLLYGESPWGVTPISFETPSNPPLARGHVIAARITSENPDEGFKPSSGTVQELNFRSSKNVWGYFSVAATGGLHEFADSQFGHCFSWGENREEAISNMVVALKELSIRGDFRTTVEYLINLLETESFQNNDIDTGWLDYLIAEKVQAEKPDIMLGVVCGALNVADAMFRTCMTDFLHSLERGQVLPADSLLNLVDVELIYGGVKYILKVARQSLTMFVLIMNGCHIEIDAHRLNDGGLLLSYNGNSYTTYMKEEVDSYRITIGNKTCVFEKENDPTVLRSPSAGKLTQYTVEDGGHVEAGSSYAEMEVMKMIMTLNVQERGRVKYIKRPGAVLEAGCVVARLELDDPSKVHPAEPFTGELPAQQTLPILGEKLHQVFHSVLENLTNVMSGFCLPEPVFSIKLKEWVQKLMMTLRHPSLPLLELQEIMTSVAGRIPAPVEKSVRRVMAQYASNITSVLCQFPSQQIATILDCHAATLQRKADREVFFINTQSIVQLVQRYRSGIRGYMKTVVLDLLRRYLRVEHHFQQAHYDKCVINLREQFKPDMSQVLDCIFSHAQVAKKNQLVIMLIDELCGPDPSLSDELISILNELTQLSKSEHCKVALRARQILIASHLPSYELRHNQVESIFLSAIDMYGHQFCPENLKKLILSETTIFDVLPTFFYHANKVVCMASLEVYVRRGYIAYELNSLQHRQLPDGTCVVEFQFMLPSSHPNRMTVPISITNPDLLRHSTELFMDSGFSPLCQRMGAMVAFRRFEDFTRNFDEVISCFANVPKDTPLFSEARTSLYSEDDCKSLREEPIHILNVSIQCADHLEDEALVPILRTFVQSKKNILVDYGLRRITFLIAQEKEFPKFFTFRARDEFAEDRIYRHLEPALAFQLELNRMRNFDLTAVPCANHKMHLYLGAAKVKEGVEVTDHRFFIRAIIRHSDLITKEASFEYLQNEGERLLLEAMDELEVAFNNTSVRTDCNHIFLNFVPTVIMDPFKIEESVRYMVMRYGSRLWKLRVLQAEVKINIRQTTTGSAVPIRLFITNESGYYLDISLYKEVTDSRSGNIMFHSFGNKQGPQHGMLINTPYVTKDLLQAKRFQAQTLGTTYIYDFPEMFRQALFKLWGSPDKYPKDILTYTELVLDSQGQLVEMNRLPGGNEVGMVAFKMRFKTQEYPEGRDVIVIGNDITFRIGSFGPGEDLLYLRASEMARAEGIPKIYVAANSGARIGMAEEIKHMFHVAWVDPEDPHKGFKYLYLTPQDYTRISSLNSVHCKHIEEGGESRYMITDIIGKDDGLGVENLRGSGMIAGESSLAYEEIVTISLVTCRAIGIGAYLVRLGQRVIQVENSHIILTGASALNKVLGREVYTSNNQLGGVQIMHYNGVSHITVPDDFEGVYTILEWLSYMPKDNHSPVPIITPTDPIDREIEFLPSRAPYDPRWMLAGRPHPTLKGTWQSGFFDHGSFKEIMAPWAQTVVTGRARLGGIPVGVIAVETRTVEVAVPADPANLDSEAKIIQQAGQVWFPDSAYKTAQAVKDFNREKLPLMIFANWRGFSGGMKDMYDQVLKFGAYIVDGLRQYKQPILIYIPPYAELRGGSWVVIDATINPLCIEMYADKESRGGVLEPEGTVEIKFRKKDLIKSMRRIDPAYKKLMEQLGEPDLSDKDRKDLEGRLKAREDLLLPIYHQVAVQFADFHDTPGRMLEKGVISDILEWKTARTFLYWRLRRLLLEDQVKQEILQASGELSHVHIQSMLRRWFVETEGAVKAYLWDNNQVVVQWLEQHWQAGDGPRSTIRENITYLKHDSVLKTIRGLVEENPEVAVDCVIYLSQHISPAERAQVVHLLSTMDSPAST

As a reminder, the IC50 is the midpoint of a concentration-inhibition curve. On to `COc1ccccc1C(CN1C(=O)C2(CCC(C(=O)O)C2)C(=O)c2c1sc(-c1ncco1)c2C)OC1CCOCC1` (mixture of isomers) [Compound 5x, 7′-(2-(2-methoxyphenyl)-2-((tetrahydro-2H-pyran-4-yl)oxy)ethyl)-3′-methyl-2′-(oxazol-2-yl)-4′,6′-dioxo-6′,7′-dihydro-4′H-spiro[cyclopentane-1,5′-thieno[2,3-b]pyridine]-3-carboxylic Acid], for which the IC50 at ACC1 is less than 10 nM; with HepG2 cells (Homo sapiens, HepG2, 72 h) it was more than 30 µM.

`COc1ccccc1C(CN1C(=O)C2(CCC(C(=O)O)C2)C(=O)c2c1sc(-c1ncco1)c2C)OC1CCOCC1` (mixture of isomers) [Compound 5y, 7′-(2-(2-methoxyphenyl)-2-((tetrahydro-2H-pyran-4-yl)oxy)ethyl)-3′-methyl-2′-(oxazol-2-yl)-4′,6′-dioxo-6′,7′-dihydro-4′H-spiro[cyclopentane-1,5′-thieno[2,3-b]pyridine]-3-carboxylic Acid]: the IC50 is less than 10 nM against ACC1 and more than 30 µM in the test on HepG2 cells.

As to `COc1ccccc1C(CN1C(=O)C2(CC(C(=O)O)C2)C(=O)c2c1sc(-c1ncco1)c2C)OC1CCOCC1` (mixture of isomers) [Compound 8, 7′-(2-(2-methoxyphenyl)-2-((tetrahydro-2H-pyran-4-yl)oxy)ethyl)-3′-methyl-2′-(oxazol-2-yl)-4′,6′-dioxo-6′,7′-dihydro-4′H-spiro[cyclobutane-1,5′-thieno[2,3-b]pyridine]-3-carboxylic Acid], the IC50 against ACC1 was less than 10 nM; in the test with HepG2 cells (Homo sapiens, HepG2, 72 h), more than 30 µM.

On to `COc1ccccc1C(CN1C(=O)C2(CCC(C(=O)O)C2)C(=O)c2c1sc(-c1ncco1)c2C)OC1CCOCC1` (single isomer, unassigned) [Compound 5b, 7′-(2-(2-methoxyphenyl)-2-((tetrahydro-2H-pyran-4-yl)oxy)ethyl)-3′-methyl-2′-(oxazol-2-yl)-4′,6′-dioxo-6′,7′-dihydro-4′H-spiro[cyclopentane-1,5′-thieno[2,3-b]pyridine]-3-carboxylic Acid], for which the IC50 against ACC1 and against ACC2 was less than 10 nM each time.

In the case of `COc1ccccc1C(CN1C(=O)C2(CC(C(=O)O)C2)C(=O)c2c1sc(-c1ncco1)c2C)OC1CCOCC1` (single isomer, unassigned) [Compound 8d, 7′-(2-(2-methoxyphenyl)-2-((tetrahydro-2H-pyran-4-yl)oxy)ethyl)-3′-methyl-2′-(oxazol-2-yl)-4′,6′-dioxo-6′,7′-dihydro-4′H-spiro[cyclobutane-1,5′-thieno[2,3-b]pyridine]-3-carboxylic Acid], the IC50 at ACC1 and at ACC2 was less than 10 nM throughout.

With `COc1ccccc1[C@H](CN1c2sc(-c3ncco3)c(C)c2C(=O)[C@]2(C[C@H](C(=O)O)C2)C1=O)OC1CCOCC1` [Compound 8c, 7′-(2-(2-methoxyphenyl)-2-((tetrahydro-2H-pyran-4-yl)oxy)ethyl)-3′-methyl-2′-(oxazol-2-yl)-4′,6′-dioxo-6′,7′-dihydro-4′H-spiro[cyclobutane-1,5′-thieno[2,3-b]pyridine]-3-carboxylic Acid], the IC50 at ACC1 and against ACC2 was less than 10 nM each time.
